Converted amounts (≈) assume the structure as drawn. Read-outs that look alike come from different tables or passages of the source.
Key:
[1] = tested on: wild-type E. coli ATCC 25922; assay: microbe, parasite or virus in culture; format: cell-based, Escherichia coli; settings: ATCC 25922; for MICcombo: antibiotic with dUSTBβP 3 at 8 μg/mL; for MIC: Escherichia coli, ATCC25922, 18 h, antibiotic alone (Supplementary Table 7), read-out: MICantibiotic
Description: (§1) The adjuvant activities of dUSTBβPs were evaluated using checkerboard assay as previously described ([Berry et al., 2019]). Overnight-grown bacterial culture diluted in saline to 0.5 McFarland turbidity was successively diluted 1:50 in MHB to achieve a final concentration of 5 × 10^5 CFU/mL for inoculation. The antibiotic and adjuvant were serially diluted 2-fold along the x-axis and y-axis, respectively, resulting in varying concentrations of both agents in each well. Subsequently, the 96-well plate was incubated with equal volumes of bacterial inoculum at 37°C for 18 h. Confirmation of turbidity was done using an EMax Plus microplate reader (Molecular Devices, United States) at a wavelength of 590 nm. Wells comprising MHB alone or in the presence of bacterial cells were used as negative or positive controls, respectively. Fractional inhibitory concentration index (FICI) is determined by adding the FICs of both antibiotic and adjuvant. The FIC of the antibiotic is calculated by dividing the MIC of the antibiotic in the presence of the adjuvant by the MIC of the antibiotic alone. Similarly, the FIC of the adjuvant is calculated by dividing the MIC of the adjuvant in the presence of the antibiotic by the MIC of the adjuvant alone. FICI ≤ 0.5, 0.5 < x ≤ 4, and >4 were deemed synergistic, additive, and antagonistic, respectively ([Meletiadis et al., 2010]).

[2] = tested on: MDR A. baumannii clinical isolates; assay: Resistance phenotype (MICs of antibiotics) of MDR clinical isolates; format: cell-based, Acinetobacter baumannii; settings: Acinetobacter baumannii, read-out: MIC
[3] = tested on: MDR P. aeruginosa clinical isolates; assay: as above; format: cell-based, Pseudomonas aeruginosa; settings: Pseudomonas aeruginosa
[4] = tested on: MDR E. cloacae clinical isolates; assay: as above; format: cell-based, Enterobacter cloacae; settings: Enterobacter cloacae, read-out: MIC
[5] = tested on: MDR K. pneumoniae clinical isolates; assay: as above; format: cell-based, Klebsiella pneumoniae; settings: Klebsiella pneumoniae, read-out: MIC
[6] = tested on: wild-type A. baumannii ATCC 17978; assay: Checkerboard assay; format: cell-based, Acinetobacter baumannii; settings: ATCC 17978; for MICcombo: antibiotic with dUSTBβP 3 at 8 μg/mL; for MIC: Acinetobacter baumannii, ATCC17978, 18 h, antibiotic alone (Supplementary Table 7), read-out: MICantibiotic
Text: as §1, with “Overnight-grown” for “The adjuvant activities of dUSTBβPs were evaluated using checkerboard assay as previously described ([Berry et al., 2019]). Overnight-grown”, “Subsequently, the 96-well plate was incubated with equal volumes of bacterial inoculum at 37°C for 18 h.” left out, “alone.” for “alone. FICI ≤ 0.5, 0.5 < x ≤ 4, and >4 were deemed synergistic, additive, and antagonistic, respectively ([Meletiadis et al., 2010]).”

[7] = tested on: MDR E. coli clinical isolates; assay: Resistance phenotype (MICs of antibiotics) of MDR clinical isolates; format: cell-based, Escherichia coli; settings: Escherichia coli, read-out: MIC
[8] = tested on: wild-type P. aeruginosa PAO1; assay: microbe, parasite or virus in culture; format: cell-based, Pseudomonas aeruginosa; settings: PAO1; for MICcombo: antibiotic with dUSTBβP 3 at 8 μg/mL; for MIC: Pseudomonas aeruginosa, 18 h, antibiotic alone (Supplementary Table 7), read-out: MICantibiotic
Text: as §1, with “Overnight-grown” for “The adjuvant activities of dUSTBβPs were evaluated using checkerboard assay as previously described ([Berry et al., 2019]). Overnight-grown”, “Subsequently, the 96-well plate was incubated with equal volumes of bacterial inoculum at 37°C for 18 h.” left out, “alone.” for “alone. FICI ≤ 0.5, 0.5 < x ≤ 4, and >4 were deemed synergistic, additive, and antagonistic, respectively ([Meletiadis et al., 2010]).”

| SMILES | MICcombo [1] | MIC [1] | MIC ([2]; LAC-4) | MIC ([3]; 262-101856, read-out: MIC) | MIC [4]; 117029 | MIC [4]; 118564 | MIC [4]; 121187 | MIC [5]; 113250 | MIC [5]; 113254 | MIC [5]; 116381 | MICcombo [6] | MIC [6] | MIC ([7]; 94393 (mcr-1 +)) | MIC ([7]; 94474 (mcr-1 +)) | MIC [7]; 107115 | MICcombo [8] | MIC [8] | also measured |
| --- | --- | --- | --- | --- | --- | --- | --- | --- | --- | --- | --- | --- | --- | --- | --- | --- | --- | --- |
| NC[C@H]1O[C@H](O[C@H]2[C@H](O)[C@@H](O[C@H]3O[C@H](CO)[C@@H](O)[C@H](N)[C@H]3O)[C@H](N)C[C@@H]2N)[C@H](N)C[C@@H]1O [Tobramycin] | 1 µg/mL | 2 µg/mL | > 4 µg/mL | 1020 µg/mL (≈ 2190 µM) | 2 µg/mL (≈ 4.28 µM) | 1 µg/mL (≈ 2.14 µM) | 32 µg/mL (≈ 68.4 µM) | ≤ 0.5 µg/mL | ≤ 0.5 µg/mL | 4 µg/mL (≈ 8.56 µM) | > 1 µg/mL | > 1 µg/mL | ≤ 0.5 µg/mL | 32 µg/mL (≈ 68.4 µM) | 8 µg/mL (≈ 17.1 µM) | 1 µg/mL | 1 µg/mL (≈ 2.14 µM) | MIC ([3]; 259-96196, read-out: MIC): 256 µg/mL (≈ 548 µM); MIC ([3]; 264-104354): 128 µg/mL (≈ 274 µM); MIC ([3]; 91433, read-out: MIC): 16 µg/mL (≈ 34.2 µM); MIC ([3]; 114228, read-out: MIC): 2 µg/mL (≈ 4.28 µM) |
| CNC(C)C1CCC(N)C(OC2C(N)CC(N)C(OC3OCC(C)(O)C(NC)C3O)C2O)O1 (stereo not drawn) [Gentamicin] | 1 µg/mL | 2 µg/mL | > 4 µg/mL | > 32 µg/mL | ≤ 0.5 µg/mL | 1 µg/mL (≈ 2.09 µM) | > 32 µg/mL | ≤ 0.5 µg/mL | ≤ 0.5 µg/mL | ≤ 0.5 µg/mL | > 1 µg/mL | > 1 µg/mL | ≤ 0.5 µg/mL | 16 µg/mL (≈ 33.5 µM) | > 32 µg/mL | 2 µg/mL | 2 µg/mL (≈ 4.19 µM) | MIC ([2]; AB027): 32 µg/mL (≈ 67 µM); MIC ([2]; AB031): < 0.5 µg/mL; MIC ([3]; 259-96196, read-out: MIC): > 32 µg/mL; MIC ([3]; 264-104354, read-out: MIC): > 32 µg/mL; MIC ([3]; 91433, read-out: MIC): 32 µg/mL (≈ 67 µM) |
| CC(=O)NC[C@H]1CN(c2ccc(N3CCOCC3)c(F)c2)C(=O)O1 [Linezolid] | 16 µg/mL | 256 µg/mL | – | – | – | – | – | – | – | – | 64 µg/mL | 512 µg/mL | – | – | – | 256 µg/mL | 1020 µg/mL (≈ 3040 µM) | – |
| CC(C)(O/N=C(\C(=O)N[C@@H]1C(=O)N2C(C(=O)[O-])=C(C[n+]3ccccc3)CS[C@H]12)c1csc(N)n1)C(=O)O [Ceftazidime] | 0.063 µg/mL | 0.25 µg/mL | > 16 µg/mL | 16 µg/mL (≈ 29.3 µM) | 0.5 µg/mL (≈ 0.915 µM) | 0.5 µg/mL (≈ 0.915 µM) | 0.5 µg/mL (≈ 0.915 µM) | 0.5 µg/mL (≈ 0.915 µM) | ≤ 0.2 µg/mL | 8 µg/mL (≈ 14.6 µM) | 8 µg/mL | 16 µg/mL | ≤ 0.25 µg/mL | 0.5 µg/mL (≈ 0.915 µM) | > 32 µg/mL | 2 µg/mL | 2 µg/mL (≈ 3.66 µM) | MIC ([3]; 259-96196): 512 µg/mL (≈ 937 µM); MIC ([3]; 264-104354): 128 µg/mL (≈ 234 µM); MIC [3]; 91433: 1020 µg/mL (≈ 1870 µM); MIC ([3]; 114228, read-out: MIC): 8 µg/mL (≈ 14.6 µM) |
| CCC[C@@H]1C[C@@H](C(=O)N[C@@H]([C@H]2O[C@H](SC)[C@H](O)[C@@H](O)[C@H]2O)[C@H](C)Cl)N(C)C1 [Clindamycin] | 4 µg/mL | 64 µg/mL | – | – | – | – | – | – | – | – | 64 µg/mL | 512 µg/mL | – | – | – | 128 µg/mL | 2050 µg/mL (≈ 4820 µM) | – |
| CC[C@H]1OC(=O)[C@H](C)[C@@H](O[C@H]2C[C@@](C)(OC)[C@@H](O)[C@H](C)O2)[C@H](C)[C@@H](O[C@@H]2O[C@H](C)C[C@H](N(C)C)[C@H]2O)[C@](C)(O)C[C@@H](C)C(=O)[C@H](C)[C@@H](O)[C@]1(C)O [Erythromycin] | 0.25 µg/mL | 64 µg/mL | – | – | – | – | – | – | – | – | 1 µg/mL | 16 µg/mL | – | – | – | – | 256 µg/mL (≈ 349 µM) | – |
| CCN1CCN(C(=O)N[C@@H](C(=O)N[C@@H]2C(=O)N3[C@@H]2SC(C)(C)[C@@H]3C(=O)O)c2ccccc2)C(=O)C1=O [Piperacillin] | 0.125 µg/mL | 2 µg/mL | – | – | – | – | – | – | – | – | 32 µg/mL | > 128 µg/mL | – | – | – | 4 µg/mL | 4 µg/mL (≈ 7.73 µM) | – |

— publication PMC8733726, “Dioctanoyl Ultrashort Tetrabasic β-Peptides Sensitize Multidrug-Resistant Gram-Negative Bacteria to Novobiocin and Rifampicin” (Frontiers in Microbiology, 2021)
